The test system of assay [1] is Rattus norvegicus. In words: In vivo Triglyceride lowering activity at dose as 0.01 % of the diet. Format: functional.
Assay [2] has as its target T1, Sterol O-acyltransferase 1 (Rattus norvegicus) (UniProt O70536).
T1 sequence (whole entry): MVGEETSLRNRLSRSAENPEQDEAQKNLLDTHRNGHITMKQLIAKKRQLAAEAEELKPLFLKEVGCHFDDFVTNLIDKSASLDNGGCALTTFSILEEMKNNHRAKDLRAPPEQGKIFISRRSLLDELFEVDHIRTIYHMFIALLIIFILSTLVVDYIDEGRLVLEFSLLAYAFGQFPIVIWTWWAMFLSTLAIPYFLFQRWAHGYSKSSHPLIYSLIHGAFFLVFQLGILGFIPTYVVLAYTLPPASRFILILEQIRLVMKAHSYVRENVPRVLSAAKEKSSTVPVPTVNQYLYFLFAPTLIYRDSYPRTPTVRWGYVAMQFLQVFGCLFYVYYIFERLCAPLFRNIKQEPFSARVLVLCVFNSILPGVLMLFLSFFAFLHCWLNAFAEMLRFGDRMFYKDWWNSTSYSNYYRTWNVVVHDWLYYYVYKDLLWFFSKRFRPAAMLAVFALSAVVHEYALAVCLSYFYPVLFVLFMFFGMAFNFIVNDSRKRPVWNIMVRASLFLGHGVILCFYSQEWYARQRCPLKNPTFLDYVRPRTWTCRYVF
In words: In vitro inhibitory activity against acyl coenzyme A:cholesterol acyltransferase. Also on record: concentration or dose not given beside the values. Conditions: concentration not given here.

In assay [3] the test system is Rattus norvegicus. Description: In vivo sterol lowering activity, dosed as 0.03 % of the diet. The assay is classed as functional.
Assay [4] concerns Rattus norvegicus. Description: In vivo Sterol lowering activity at dose as 0.01% of the diet. The assay is classed as functional.
In assay [5] the test system is Rattus norvegicus. In words: In vivo Triglyceride lowering activity at a dose of 0.10 % of the diet. The assay is classed as functional.
Assay [6] concerns Rattus norvegicus. In words: In vivo sterol lowering activity at dose of 0.10 % of the diet. The assay is classed as functional.
For assay [7], the system named is Rattus norvegicus. Description: In vivo Triglyceride lowering activity at dose as 0.03 % of the diet. The assay is classed as functional.

Some results are limits rather than exact numbers.

Broadly, the inhibition is how much of the control response was suppressed.

Consider `CCCC[S+]([O-])CCCCCCCCCCCNc1ccc(C(=O)O)cc1` (centres undefined), for which the “serum triglyceride level (% of control)” value in the assay on Rattus norvegicus [1] was 87%; in the assay on Rattus norvegicus [5] it was under 66%. Also, the inhibition in assay [2] is under 15%. The “serum sterol level, percent of control” value in the assay on Rattus norvegicus [3] turned out to be 95%; in the assay on Rattus norvegicus [4] it was 106%. The “serum sterol level, % of control” value in the assay with Rattus norvegicus [6] worked out at 91%. The triglyceride lowering activity with Rattus norvegicus [7] is recorded as 94%.
For `CCOC(=O)c1ccc(NCC(F)(F)C(F)(F)C(F)(F)C(F)(F)C(F)(F)C(F)(F)C(F)(F)F)cc1`, the figures for the “serum triglyceride level (% of control)” value in the assay with Rattus norvegicus [1] and with Rattus norvegicus [5] were under 47% and under 35%, respectively. This compound came in with an inhibition in assay [2] of 7%. Besides, the “serum sterol level, percent of control” value with Rattus norvegicus [3] is listed as under 65%; in the assay on Rattus norvegicus [4], under 81%. For the same compound, the “serum sterol level, % of control” value with Rattus norvegicus [6] was under 44%. The compound further yielded a triglyceride lowering activity in the assay with Rattus norvegicus [7] of under 43%.
With `CCOC(=O)c1ccc(NCCCCCCCCCCCCC(C)(C)C)cc1`, the “serum triglyceride level (% of control)” value with Rattus norvegicus [1] is given as 99%; in the assay on Rattus norvegicus [5] it was 81%. Also, the inhibition in assay [2] was 7%. The “serum sterol level, percent of control” value in the assay with Rattus norvegicus [3] is under 84%; with Rattus norvegicus [4], under 89%. Besides, the “serum sterol level, % of control” value with Rattus norvegicus [6] is under 83%. The compound also displayed a triglyceride lowering activity with Rattus norvegicus [7] of 83%.
As to `CCOC(=O)c1ccc(NCCCCCCCCCCCBr)cc1`, the “serum triglyceride level (% of control)” value in the assay with Rattus norvegicus [1] is 83%; in the assay on Rattus norvegicus [5], 74%. The compound also showed an inhibition in assay [2] of under 61%. Moreover, the “serum sterol level, percent of control” value turned out to be 94% in the assay on Rattus norvegicus [3] and 108% in the assay with Rattus norvegicus [4]. Further, in the assay on Rattus norvegicus [6], the “serum sterol level, % of control” value is 101%. The compound further came in with a triglyceride lowering activity with Rattus norvegicus [7] of 83%.
As for `CCCCCCCCCCCCCCC(C)Nc1ccc(C(=O)O)cc1` (centres undefined), the “serum triglyceride level (% of control)” value is listed as 79% with Rattus norvegicus [1] and under 49% in the assay with Rattus norvegicus [5]. The compound further returned an inhibition in assay [2] of under 51%. In addition, the “serum sterol level, percent of control” value is reported as 95% in the assay on Rattus norvegicus [3] and 114% with Rattus norvegicus [4]. The “serum sterol level, % of control” value with Rattus norvegicus [6] is reported as under 79%. The compound also returned a triglyceride lowering activity with Rattus norvegicus [7] of 68%.
Take `CC(C)CCCCCCCCCCCCCNc1ccc(C(=O)O)cc1`: the “serum triglyceride level (% of control)” value in the assay on Rattus norvegicus [1] is reported as 77%; in the assay on Rattus norvegicus [5], under 29%. This compound also had an inhibition in assay [2] of under 63%. Besides, the “serum sterol level, percent of control” value in the assay on Rattus norvegicus [3] is on record as under 76%; in the assay with Rattus norvegicus [4], under 89%. Besides, in the assay on Rattus norvegicus [6], the “serum sterol level, % of control” value is reported as under 64%. The same compound returned a triglyceride lowering activity in the assay on Rattus norvegicus [7] of under 68%.
For the compound `CC(C)(C)CCCCCCCCCCCCNc1ccc(C(=O)O)cc1`, the figures for the “serum triglyceride level (% of control)” value in the assay on Rattus norvegicus [1] and in the assay with Rattus norvegicus [5] were under 75% and under 26%, respectively. Also, the inhibition in assay [2] was under 59%. The “serum sterol level, percent of control” value with Rattus norvegicus [3] was under 77%; in the assay on Rattus norvegicus [4] it was 94%. Also, in the assay on Rattus norvegicus [6], the “serum sterol level, % of control” value is under 75%. For the same compound, in the assay on Rattus norvegicus [7], the triglyceride lowering activity is on record as under 53%.
On to `CCCCCCCCCCC(Cl)CCCCCNc1ccc(C(=O)OCC)cc1` (centres undefined), for which the “serum triglyceride level (% of control)” value in the assay with Rattus norvegicus [1] was 82%; in the assay on Rattus norvegicus [5], under 53%. In assay [2], this compound had an inhibition of 13%. In addition, the entries for the “serum sterol level, percent of control” value in the assay on Rattus norvegicus [3] and with Rattus norvegicus [4] were 91% and 98%, respectively. In addition, in the assay on Rattus norvegicus [6], the “serum sterol level, % of control” value is recorded as 94%. Also, the triglyceride lowering activity in the assay on Rattus norvegicus [7] turned out to be 84%.
For the compound `CCOC(=O)c1ccc(NCCCCCCCCCCCCCCCC(F)(F)F)cc1`, the entries for the “serum triglyceride level (% of control)” value in the assay on Rattus norvegicus [1] and in the assay with Rattus norvegicus [5] were under 75% and under 41%, respectively. This compound came in with an inhibition in assay [2] of 8%. The “serum sterol level, percent of control” value was under 72% in the assay with Rattus norvegicus [3] and under 83% in the assay on Rattus norvegicus [4]. The “serum sterol level, % of control” value in the assay with Rattus norvegicus [6] is under 75%. In the assay with Rattus norvegicus [7], this compound showed a triglyceride lowering activity of under 47%.
For `CCCCCCCCCCCCCCCCNc1ccc(C(=O)O)cc1` [CETABEN], the entries for the “serum triglyceride level (% of control)” value in the assay on Rattus norvegicus [1] and with Rattus norvegicus [5] were under 71% and under 31%, respectively. Moreover, the inhibition in assay [2] is under 57%. Besides, the figures for the “serum sterol level, percent of control” value in the assay with Rattus norvegicus [3] and in the assay with Rattus norvegicus [4] were under 71% and under 72%, respectively. In the assay on Rattus norvegicus [6], the “serum sterol level, % of control” value is under 54%. In addition, the triglyceride lowering activity in the assay on Rattus norvegicus [7] was under 45%.
Consider `CCCCCCCCCCC(N)CCCCCNc1ccc(C(=O)OCC)cc1` (centres undefined), for which the “serum triglyceride level (% of control)” value was 68% in the assay on Rattus norvegicus [1] and under 45% in the assay with Rattus norvegicus [5]. Further, the inhibition in assay [2] was determined as 0%. The figures for the “serum sterol level, percent of control” value in the assay with Rattus norvegicus [3] and in the assay with Rattus norvegicus [4] were 99% and 97%, respectively. In the assay with Rattus norvegicus [6], the “serum sterol level, % of control” value is on record as 84%. Moreover, the triglyceride lowering activity in the assay with Rattus norvegicus [7] was 70%.
For the compound `O=C(O)c1ccc(NCCCCCCCCCCCCCCCCS)cc1`, the “serum triglyceride level (% of control)” value is 67% in the assay on Rattus norvegicus [1] and under 40% with Rattus norvegicus [5]. The same compound returned an inhibition in assay [2] of under 38%. Besides, the “serum sterol level, percent of control” value with Rattus norvegicus [3] is listed as 101%; in the assay with Rattus norvegicus [4], 96%. Besides, in the assay on Rattus norvegicus [6], the “serum sterol level, % of control” value is given as 101%. Moreover, the triglyceride lowering activity in the assay on Rattus norvegicus [7] is listed as under 45%.
For the compound `CCCCCCCCCCCCCCC(C)Nc1ccc(C(=O)OCC)cc1` (centres undefined), the “serum triglyceride level (% of control)” value in the assay with Rattus norvegicus [1] was 81%; in the assay with Rattus norvegicus [5], under 55%. The same compound came in with an inhibition in assay [2] of under 18%. Moreover, the “serum sterol level, percent of control” value in the assay on Rattus norvegicus [3] came out at 100%; in the assay with Rattus norvegicus [4], 107%. For the same compound, the “serum sterol level, % of control” value in the assay on Rattus norvegicus [6] is 93%. This compound also came in with a triglyceride lowering activity in the assay on Rattus norvegicus [7] of under 55%.
Consider `O=C(O)c1ccc(NCCCCCCCCCCCBr)cc1`, for which the “serum triglyceride level (% of control)” value with Rattus norvegicus [1] is given as 78%; in the assay on Rattus norvegicus [5], under 55%. Also, the inhibition in assay [2] was 8%. For the same compound, the “serum sterol level, percent of control” value with Rattus norvegicus [3] is under 86%; in the assay on Rattus norvegicus [4], 99%. Moreover, in the assay with Rattus norvegicus [6], the “serum sterol level, % of control” value turned out to be 100%. The same compound displayed a triglyceride lowering activity in the assay with Rattus norvegicus [7] of under 65%.
Consider `O=C(O)c1ccc(NCC(F)(F)C(F)(F)C(F)(F)C(F)(F)C(F)(F)C(F)(F)C(F)(F)F)cc1`, for which the “serum triglyceride level (% of control)” value in the assay with Rattus norvegicus [1] is on record as under 51%; with Rattus norvegicus [5], under 31%. In addition, the inhibition in assay [2] was under 42%. Besides, the “serum sterol level, percent of control” value with Rattus norvegicus [3] was under 66%; with Rattus norvegicus [4] it was under 87%. Also, the “serum sterol level, % of control” value in the assay on Rattus norvegicus [6] is listed as under 59%. In addition, the triglyceride lowering activity with Rattus norvegicus [7] is given as under 40%.
Regarding `Br.CCOC(=O)c1ccc(NCCCCCCCCCCCSC(=N)N)cc1`, the “serum triglyceride level (% of control)” value is on record as 85% in the assay on Rattus norvegicus [1] and under 59% in the assay on Rattus norvegicus [5]. Further, the inhibition in assay [2] is under 73%. Moreover, the “serum sterol level, percent of control” value in the assay with Rattus norvegicus [3] was determined as 107%; with Rattus norvegicus [4], 100%. For the same compound, in the assay on Rattus norvegicus [6], the “serum sterol level, % of control” value is 98%. In the assay on Rattus norvegicus [7], this compound registered a triglyceride lowering activity of under 69%.
Consider `CCCCCC(=O)CCCCCCCCCCNc1ccc(C(=O)O)cc1`, for which the “serum triglyceride level (% of control)” value in the assay on Rattus norvegicus [1] was under 59%; with Rattus norvegicus [5] it was under 42%. Also, the inhibition in assay [2] is under 33%. The results for the “serum sterol level, percent of control” value with Rattus norvegicus [3] and in the assay with Rattus norvegicus [4] were 89% and 93%, respectively. In addition, the “serum sterol level, % of control” value in the assay on Rattus norvegicus [6] is reported as under 81%. The triglyceride lowering activity in the assay with Rattus norvegicus [7] was under 57%.

Values taken from ChEMBL document CHEMBL1122462, “Potential antiatherosclerotic agents. 4. [(Functionalized-alkyl)amino]benzoic acid analogues of cetaben” (1983).
